The subject of data set [1] is GeneBLAzer FXR-UAS-bla HEK 293T cells. Nature of the data set: Cytotoxicity assay in GeneBLAzer FXR cells (CellTiter-Glo). The note with it: class symbol NT.
Method: (§2) To examine if certain chemical antagonistic effect was caused by cytotoxicity, the same GeneBLAzer FXR cells were used to perform cytotoxicity assay. This assay was set up like the FXR agonistic assay, with the exception of signal reading. Instead of detecting the reporter activities, CellTiter-Glo® assay was used to detect cell viability. DMSO with cells or without cells group were served as negative (0% Inhibition) or positive (100% Inhibition), respectively.
(§3) Cytotoxicity assays were performed side-by-side with the FXR agonistic assay using GeneBLAzer FXR-UAS-bla HEK 293T cells with CellTiter-Glo® Luminescent Cell Viability Assay reagent (Promega). Briefly, cells were maintained in DMEM supplemented with 10% dialyzed FBS, 0.1 mM non-essential amino acids, 25 mM HEPES, 100 μg/ml of hygromycin B, 100 μg/ml of zeocin, 100 units/ml penicillin and 100 μg/ml streptomycin in regular tissue culture flasks. […] As a positive control, the wells in column 24 of each plate were filled with 30 μL assay medium along with 0.5% DMSO. The final DMSO concentration was 0.5% in each assay well. After a 16 h incubation in a cell culture incubator at 37° C., the cell plates were cooled at room temperature for 20 min and then CellTiter-Glo® reagent 20 μl/well was added followed by an incubation for 20 min in the dark to allow the development of optimal luminescence signal. The luminescence signal from each well in plates was collected with an Envision plate reader equipped with Ultra-sensitive Luminescence detector. The DMSO group and no cell group served as negative (0% activation) and positive (100% activation) controls, respectively. The % inhibition was calculated using equation 4 below.
Data set [2] deals with T1, FXR (Homo sapiens, UniProt Q96RI1).
T1 sequence (Q96RI1 262-486 limits assumed): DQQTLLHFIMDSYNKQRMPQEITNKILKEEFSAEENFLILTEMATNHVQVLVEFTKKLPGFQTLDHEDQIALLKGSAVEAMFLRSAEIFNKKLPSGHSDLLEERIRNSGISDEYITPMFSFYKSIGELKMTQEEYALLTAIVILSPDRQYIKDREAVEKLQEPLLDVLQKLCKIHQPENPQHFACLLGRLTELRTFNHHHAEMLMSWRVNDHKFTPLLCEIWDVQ
Nature of the data set: FXR TR-FRET binding assay (DY246 fluorescent probe). The note with it: for IC50: mean ± SE. As to the method: The FXR TR-FRET binding assay was performed as previously described^23 with modifications. […] The plate was spun down after a brief shake and incubated at room temperature for 20 min. The TR-FRET emission signals at 520 nm and 490 nm for each well was then collected using a PHERAstar plate reader (BMG LABTECH, Cary, N.C.) with an excitation wavelength of 337 nm, 100-μs delay time, and 200-μs integration time. The 520 nm/490 nm ratio from each well was then calculated. […] The % inhibition of tested chemicals at given concentration was calculated based on negative and positive controls using equation 1.

Data set [3] deals with GeneBLAzer FXR-UAS-bla HEK 293T cells.
Method: as §2, §3
The target in data set [4] is T1, FXR. Nature of the data set: GeneBLAzer FXR cell-based antagonistic assay (in presence of 400 nM GW4064). On the set-up: the Gal4 DBD was fused to the LBD of FXR in this assay; host or cells: GeneBLAzer FXR-UAS-bla HEK 293T cells. The note with it: for inhibition at 40 µM: read-out: GB FXR Cell Anta. % Inh. As to the method: A GeneBLAzer FXR cell-based assay was used to investigate the cellular activities of the 1,3,4-trisubstituted-pyrazol-4-carboxamide analogs. The assay detects the levels of a […] reporter controlled by a promoter containing the binding site of the DNA binding domain (DBD) of the GAL4 transcription factor; the Gal4 DBD was fused to the LBD of FXR in this assay.^35
(§1) FXR transactivation assays were performed using GeneBLAzer FXR-UAS-bla HEK 293T cells (Invitrogen). Cells were maintained according to the manufacturer's instructions. […] Plates were then incubated in dark for 90 min at room temperature before measuring the fluorescent emissions at 460 nm and 535 nm (using excitation at 400 nm) with an Envision plate reader with bottom read capacity. After background signal subtraction for individual emission channels, emission signals at 460 and 535 nm from each well were used to determine the ratio of 460 nm/535 nm. […] The % activation was calculated using equation 2.
The % inhibition was calculated using equation 3.

In data set [5] the target is T1, FXR. Nature of the data set: GeneBLAzer FXR cell-based agonistic assay. On the set-up: the Gal4 DBD was fused to the LBD of FXR in this assay; host or cells: GeneBLAzer FXR-UAS-bla HEK 293T cells. The settings on record: without GW4064, 16 h. As to the method:
The reporter assays were performed after a16 h incubation.
as §1

Read-outs that look alike come from different tables or passages of the source.

As to `C[C@H](CCC(=O)O)[C@H]1CC[C@H]2[C@@H]3CC[C@@H]4C[C@H](O)CC[C@]4(C)[C@H]3CC[C@]12C` [Lithocholic Acid, lithocholic acid], the “GB FXR Cell Cyto % Inh.” value in data set [1] is on record as “NT (NT: Not toxic (toxicity less than 5%))”.
For `CC(C)c1onc(-c2c(Cl)cccc2Cl)c1COc1ccc(/C=C/c2cccc(C(=O)O)c2)c(Cl)c1` [GW4064], in data set [1], the “GB FXR Cell Cyto % Inh.” value is listed as “NT (NT: Not toxic (toxicity less than 5%))”.
In the case of `COc1cccc(Cn2cc(C(=O)Nc3ccc(C)c(S(=O)(=O)N4CCOCC4)c3)c(-c3ccc(C)cc3)n2)c1` [Compound 4j, 1-(3-Methoxybenzyl)-N-(4-methyl-3-(morpholinosulfonyl)phenyl)-3-(p-tolyl)-1H-pyrazole-4-carboxamide], on FXR [2] (at 164 nM, read-out: FXR TR-FRET Binding % Inh.), the inhibition at 0.164 µM amounted to 130 ± 5.4%. Also, at FXR [2], the IC50 amounted to 7.5 nM. For the same molecule, the “fold more potent than Z26476908 in FXR TR-FRET binding assay” value at FXR [2] (ratio of IC50 values) is on record as 5.26 fold. In addition, in data set [3], the “cytotoxicity” value was “no cytotoxicity”. Also, on FXR [4], the “FXR antagonistic activity, SAR statement in words” value was “enhanced antagonistic activity” and the inhibition at 40 µM is 98.9 ± 4.3%. Moreover, the “fold more potent than Z26476908 in antagonistic assay” value on FXR [4] (ratio of IC50 values) amounted to 4.59 fold. Moreover, the IC50 at FXR [4] (with 400 nM GW4064, read-out: GB FXR Cell Anta. IC50) worked out at 468 ± 8.4 nM. The “FXR agonistic activity” value at FXR [5] is reported as “no FXR agonistic activity”.
`COc1cccc(Cn2cc(C(=O)N(C)c3ccc(C)c(S(=O)(=O)N4CCOCC4)c3)c(-c3cccc(OC)c3)n2)c1` [Compound 8-3, 1-(3-Methoxybenzyl)-3-(3-methoxyphenyl)-N-methyl-N-(4-methyl-3-(morpholinosulfonyl)phenyl)-1H-pyrazole-4-carboxamide]: the inhibition at 40 µM was determined as 69.7 ± 3.5% at FXR [2] (at 40 μM, read-out: FXR TR-FRET Binding % Inh.) and 23.8 ± 0.4% on FXR [4]. This molecule registered an IC50 at FXR [2] of 3810 ± 200 nM. Besides, in data set [3] (human, 16 h, 40 μM), the “GB FXR Cell Cyto % Inh.” value is given as 19.7 ± 0.4 (40 μM) %. The “activity against FXR at 1 μM” value on FXR [4] (at 1 μM) is reported as “weak activity”.

The values are drawn from patent publication US10611729B2, “Farnesoid X receptor antagonists” (City of Hope, priority 2014, dated 2020).
